Measurements as given in patent US11459315B2, “Modulators of methyl modifying enzymes, compositions and uses thereof” (Constellation Pharmaceuticals, Inc., priority 2017, dated 2022).
Read-outs that look alike come from different tables or passages of the source.

How the values were obtained:
[1] = system: H3K27me3 mark in HeLa cells (EZH2); assay: H3K27me3 Alpha Hela Assay (AlphaLISA); assay type: cell-based; settings: HeLa cells, 72 hrs, read-out: EZH2 Cell H3K27me3 Alpha HeLa (EC50 K27me3)
Summary of the method: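 HeLa cells (1,000/well) treated with ten 3-fold compound doses for 72 h at 37 °C; lysates extracted and H3K27me3 detected by AlphaLISA with anti-K27me3 acceptor beads, biotinylated anti-H3 (3 nM) and streptavidin donor beads. EC50 from DMSO-normalized dose-response curves; duplicate plate assessed viability.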

PRC2 containing wt EZH2 = PRC2 containing wt EZH2 (Homo sapiens (Human), UniProt Q15910); assay: EZH2 biochemical assay (IC50), 3H-SAM incorporation into biotinylated H3 peptide
Summary of the method: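 Activity was measured as ³H-methyl transfer to a biotinylated H3K27me1 peptide over 18-22 h at room temperature, with capture on streptavidin flash plates. The 30 pM wt-EZH2 PRC2 complex was first pre-incubated 3-5 h with compound, 450 nM SAM/450 nM ³H-SAM and 2 µM H3K27me3 activator (pH 8.5, 0.8% DMSO). Four-parameter fits gave IC50.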

[2] = 30 pM PRC2 containing wt EZH2; 3-5 h pre-incubation; read-out: EZH2 (IC50)
[3] = EZH2 (IC50), 30 pM PRC2 containing wt EZH2; 3-5 h pre-incubation

PRC2 containing wt EZH2, sequence (Q15910 whole entry): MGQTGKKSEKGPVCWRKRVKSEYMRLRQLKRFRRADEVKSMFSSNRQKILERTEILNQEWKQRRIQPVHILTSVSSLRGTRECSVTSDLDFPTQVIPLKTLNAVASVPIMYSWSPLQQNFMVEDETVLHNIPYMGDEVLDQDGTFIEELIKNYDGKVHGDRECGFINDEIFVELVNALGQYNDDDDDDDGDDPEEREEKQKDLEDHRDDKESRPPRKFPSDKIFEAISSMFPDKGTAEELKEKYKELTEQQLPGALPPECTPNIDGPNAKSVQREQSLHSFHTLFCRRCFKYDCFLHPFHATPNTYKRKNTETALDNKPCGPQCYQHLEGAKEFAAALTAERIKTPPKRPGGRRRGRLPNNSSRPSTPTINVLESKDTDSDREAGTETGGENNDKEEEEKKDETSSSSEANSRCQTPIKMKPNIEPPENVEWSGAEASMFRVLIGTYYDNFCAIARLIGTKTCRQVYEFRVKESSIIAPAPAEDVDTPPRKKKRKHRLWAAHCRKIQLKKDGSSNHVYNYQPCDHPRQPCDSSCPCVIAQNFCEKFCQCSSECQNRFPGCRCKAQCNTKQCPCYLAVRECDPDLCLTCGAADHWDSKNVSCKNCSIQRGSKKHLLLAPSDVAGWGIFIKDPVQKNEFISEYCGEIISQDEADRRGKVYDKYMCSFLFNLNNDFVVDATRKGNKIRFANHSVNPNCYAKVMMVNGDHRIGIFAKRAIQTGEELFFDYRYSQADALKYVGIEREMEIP
PRC2 containing wt EZH2, sequence (O75530 whole entry partner): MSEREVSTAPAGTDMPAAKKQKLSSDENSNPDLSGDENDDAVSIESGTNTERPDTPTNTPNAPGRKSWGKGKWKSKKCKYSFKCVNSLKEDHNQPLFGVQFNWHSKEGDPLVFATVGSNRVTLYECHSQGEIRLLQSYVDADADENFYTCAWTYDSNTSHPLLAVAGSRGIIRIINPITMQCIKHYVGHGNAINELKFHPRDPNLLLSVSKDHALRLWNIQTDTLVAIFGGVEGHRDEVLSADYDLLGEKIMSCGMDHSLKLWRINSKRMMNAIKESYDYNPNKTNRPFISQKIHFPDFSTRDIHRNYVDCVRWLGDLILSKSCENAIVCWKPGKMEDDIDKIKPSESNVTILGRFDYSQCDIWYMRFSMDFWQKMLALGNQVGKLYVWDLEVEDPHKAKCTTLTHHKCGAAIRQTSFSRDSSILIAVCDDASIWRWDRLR
PRC2 containing wt EZH2, sequence (Q15022 whole entry partner): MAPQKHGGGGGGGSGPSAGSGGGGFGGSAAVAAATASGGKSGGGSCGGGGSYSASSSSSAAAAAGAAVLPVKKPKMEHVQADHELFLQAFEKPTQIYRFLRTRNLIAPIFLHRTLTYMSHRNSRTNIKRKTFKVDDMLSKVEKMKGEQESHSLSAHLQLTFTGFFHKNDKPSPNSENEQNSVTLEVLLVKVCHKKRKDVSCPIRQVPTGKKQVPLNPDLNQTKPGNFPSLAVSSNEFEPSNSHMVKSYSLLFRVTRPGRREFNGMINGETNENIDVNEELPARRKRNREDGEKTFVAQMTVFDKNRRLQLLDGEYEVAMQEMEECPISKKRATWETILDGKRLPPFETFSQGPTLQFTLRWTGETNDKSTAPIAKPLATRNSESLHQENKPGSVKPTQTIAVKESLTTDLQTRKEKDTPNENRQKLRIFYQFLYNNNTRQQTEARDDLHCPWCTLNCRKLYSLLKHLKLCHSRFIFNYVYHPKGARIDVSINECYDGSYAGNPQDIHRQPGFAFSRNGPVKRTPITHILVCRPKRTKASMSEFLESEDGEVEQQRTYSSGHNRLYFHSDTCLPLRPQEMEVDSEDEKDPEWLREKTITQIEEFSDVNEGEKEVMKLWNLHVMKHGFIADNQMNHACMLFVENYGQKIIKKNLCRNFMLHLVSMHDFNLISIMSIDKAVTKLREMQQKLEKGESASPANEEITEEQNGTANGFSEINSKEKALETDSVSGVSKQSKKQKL
PRC2 containing wt EZH2, sequence (Q09028 whole entry partner): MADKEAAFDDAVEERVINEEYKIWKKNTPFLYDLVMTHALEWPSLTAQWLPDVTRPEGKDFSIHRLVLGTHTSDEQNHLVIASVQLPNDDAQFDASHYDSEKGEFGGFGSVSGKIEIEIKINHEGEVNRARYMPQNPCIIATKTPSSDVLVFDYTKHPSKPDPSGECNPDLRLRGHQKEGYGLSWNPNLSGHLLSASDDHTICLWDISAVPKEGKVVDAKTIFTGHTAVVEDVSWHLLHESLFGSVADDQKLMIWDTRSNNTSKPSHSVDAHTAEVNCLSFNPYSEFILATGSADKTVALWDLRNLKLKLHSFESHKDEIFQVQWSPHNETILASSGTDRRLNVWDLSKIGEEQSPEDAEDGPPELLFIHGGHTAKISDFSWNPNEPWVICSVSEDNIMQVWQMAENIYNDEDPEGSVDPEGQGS
PRC2 containing wt EZH2, sequence (Q6ZN18 whole entry partner): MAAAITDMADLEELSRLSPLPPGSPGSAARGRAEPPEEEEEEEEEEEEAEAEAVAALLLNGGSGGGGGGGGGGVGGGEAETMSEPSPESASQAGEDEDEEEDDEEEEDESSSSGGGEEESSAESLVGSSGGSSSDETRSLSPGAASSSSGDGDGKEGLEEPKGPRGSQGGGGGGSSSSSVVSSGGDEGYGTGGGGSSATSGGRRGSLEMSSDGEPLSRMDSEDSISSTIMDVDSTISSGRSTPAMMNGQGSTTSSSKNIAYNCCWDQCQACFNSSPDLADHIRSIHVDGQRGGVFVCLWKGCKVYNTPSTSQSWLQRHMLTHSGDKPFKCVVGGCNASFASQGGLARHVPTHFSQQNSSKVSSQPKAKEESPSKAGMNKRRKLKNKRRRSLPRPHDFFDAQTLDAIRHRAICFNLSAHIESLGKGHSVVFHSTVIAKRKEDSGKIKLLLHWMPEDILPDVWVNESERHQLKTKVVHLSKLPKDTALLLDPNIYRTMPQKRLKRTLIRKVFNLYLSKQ

Row | SMILES | EC50 [1] [nM] | IC50 (PRC2 containing wt EZH2; [2]) [nM] | EC50 ([1]; Homo sapiens, HeLa, 72 h) [nM] | IC50 (PRC2 containing wt EZH2; [3]) [nM] | IC50 (PRC2 containing wt EZH2; read-out: EZH2 (IC50); 30 pM PRC2 containing wt EZH2; 3-5 h pre-incubation) [nM]
1 | COC1CN(C2CCC([C@@H](C)n3c(C)c(C(=O)NCc4c(SC)cc(C)[nH]c4=O)c4cc(Cl)cnc43)CC2)C1 (single isomer, unassigned) [106 (isomer 2)] | 10 to 100 | < 0.5 | – | – | –
2 | CSc1cc(C)[nH]c(=O)c1CNC(=O)c1c(C)n([C@H](C)C2CCC(N3CC(OC(C)(C)C)C3)CC2)c2ncccc12 (single isomer, unassigned) [112 (isomer 1)] | – | < 0.5 | < 10 | – | –
3 | CSc1cc(C)[nH]c(=O)c1CNC(=O)c1c(C)n([C@H](C)C2CCC(N3CC(OC(C)(C)C)C3)CC2)c2ncccc12 (single isomer, unassigned) [112 (isomer 2)] | 10 to 100 | < 0.5 | – | – | –
4 | CSc1cc(C)[nH]c(=O)c1CNC(=O)c1c(C)n([C@H](C)C2CCC(N3CC(OC4CC4)C3)CC2)c2c(F)cccc12 (single isomer, unassigned) [113 (isomer 1)] | – | < 0.5 | < 10 | – | –
5 | CSc1cc(C)[nH]c(=O)c1CNC(=O)c1c(C)n([C@H](C)C2CCC(N3CC(OC4CC4)C3)CC2)c2c(F)cccc12 (single isomer, unassigned) [113 (isomer 2)] | 10 to 100 | < 0.5 | – | – | –
6 | CSc1cc(C)[nH]c(=O)c1CNC(=O)c1c(C)n([C@H](C)C2CCC(N3CC(OC(F)F)C3)CC2)c2c(F)cccc12 (single isomer, unassigned) [121 (isomer 1)] | < 10 | < 0.5 | – | – | –
7 | CSc1cc(C)[nH]c(=O)c1CNC(=O)c1c(C)n([C@H](C)C2CCC(N3CC(OC(F)F)C3)CC2)c2c(F)cccc12 (single isomer, unassigned) [121 (isomer 2)] | > 100 | 0.5 to 5 | – | – | –
8 | CSc1cc(C)[nH]c(=O)c1CNC(=O)c1c(C)n([C@H](C)C2CCC(N3CC(OC(F)(F)F)C3)CC2)c2ncncc12 (single isomer, unassigned) [123 (isomer 1)] | – | < 0.5 | < 10 | – | –
9 | CSc1cc(C)[nH]c(=O)c1CNC(=O)c1c(C)n([C@H](C)C2CCC(N3CC(OC(F)(F)F)C3)CC2)c2ncncc12 (single isomer, unassigned) [123 (isomer 2)] | < 10 | < 0.5 | – | – | –
10 | COc1cnc2c(c1)c(C(=O)NCc1c(SC)cc(C)[nH]c1=O)c(C)n2[C@H](C)C1CCC(N2CC(OC(F)F)C2)CC1 (single isomer, unassigned) [125 (isomer 1)] | – | < 0.5 | < 10 | – | –
11 | CSc1cc(C)[nH]c(=O)c1CNC(=O)c1c(C)n([C@H](C)C2CCC(OC(C)=O)CC2)c2ccccc12 (single isomer, unassigned) [134 (isomer 1)] | – | < 0.5 | < 10 | – | –
12 | CSc1cc(C)[nH]c(=O)c1CNC(=O)c1c(C)n([C@H](C)C2CCC(OC(C)=O)CC2)c2ccccc12 (single isomer, unassigned) [134 (isomer 2)] | < 10 | < 0.5 | – | – | –
13 | CSc1cc(C)[nH]c(=O)c1CNC(=O)c1c(C)n([C@H](C)C2CCC(OC3COC3)CC2)c2ccccc12 (single isomer, unassigned) [137 (isomer 1)] | – | – | < 10 | < 0.5 | –
14 | CSc1cc(C)[nH]c(=O)c1CNC(=O)c1c(C)n([C@H](C)C2CCC(OC3COC3)CC2)c2ccccc12 (single isomer, unassigned) [137 (isomer 2)] | < 10 | – | – | – | < 0.5
15 | CSc1cc(C)[nH]c(=O)c1CNC(=O)c1c(C)n([C@H](C)C2CCC(N3CC(C#N)C3)CC2)c2ccccc12 (single isomer, unassigned) [138 (isomer 1)] | – | – | 10 to 100 | 0.5 to 5 | –
16 | CSc1cc(C)[nH]c(=O)c1CNC(=O)c1c(C)n([C@H](C)C2CCC(N3CC(C#N)C3)CC2)c2ccccc12 (single isomer, unassigned) [138 (isomer 2)] | 10 to 100 | – | – | < 0.5 | –

Row | SMILES | EC50 [1] [nM] | IC50 (PRC2 containing wt EZH2; [2]) [nM] | EC50 ([1]; Homo sapiens, HeLa, 72 h) [nM] | IC50 (PRC2 containing wt EZH2; [3]) [nM] | IC50 (PRC2 containing wt EZH2; read-out: EZH2 (IC50); 30 pM PRC2 containing wt EZH2; 3-5 h pre-incubation) [nM]
17 | CSc1cc(C)[nH]c(=O)c1CNC(=O)c1c(C)n([C@H](C)C2CCC(N3CC34COC4)CC2)c2ncccc12 (single isomer, unassigned) [139 (isomer 1)] | – | – | 10 to 100 | < 0.5 | –
18 | CSc1cc(C)[nH]c(=O)c1CNC(=O)c1c(C)n([C@H](C)C2CCC(N3CC34COC4)CC2)c2ncccc12 (single isomer, unassigned) [139 (isomer 2)] | 10 to 100 | – | – | 0.5 to 5 | –
19 | CCCC(=O)OC1CCC([C@@H](C)n2c(C)c(C(=O)NCc3c(SC)cc(C)[nH]c3=O)c3ccccc32)CC1 (single isomer, unassigned) [143 (isomer 1)] | – | < 0.5 | < 10 | – | –
20 | CCCC(=O)OC1CCC([C@@H](C)n2c(C)c(C(=O)NCc3c(SC)cc(C)[nH]c3=O)c3ccccc32)CC1 (single isomer, unassigned) [143 (isomer 2)] | < 10 | < 0.5 | – | – | –
21 | CSc1cc(C)[nH]c(=O)c1CNC(=O)c1c(C)n([C@H](C)C2CCC(OC(=O)C(C)C)CC2)c2ccccc12 (single isomer, unassigned) [144 (isomer 1)] | – | < 0.5 | < 10 | – | –
22 | CSc1cc(C)[nH]c(=O)c1CNC(=O)c1c(C)n([C@H](C)C2CCC(OC(=O)C(C)C)CC2)c2ccccc12 (single isomer, unassigned) [144 (isomer 2)] | < 10 | < 0.5 | – | – | –
23 | CSc1cc(C)[nH]c(=O)c1CNC(=O)c1c(C)n([C@H](C)C2CCC(OC3CN(C)C3)CC2)c2ncccc12 (single isomer, unassigned) [145 (isomer 1)] | – | – | > 100 | 0.5 to 5 | –
24 | CSc1cc(C)[nH]c(=O)c1CNC(=O)c1c(C)n([C@H](C)C2CCC(OC3CN(C)C3)CC2)c2ncccc12 (single isomer, unassigned) [145 (isomer 2)] | > 100 | – | – | < 0.5 | –
25 | CSc1cc(C)[nH]c(=O)c1CNC(=O)c1c(C)n([C@H](C)C2CCC(Oc3cnn(C)c3)CC2)c2ncccc12 (single isomer, unassigned) [147 (isomer 1)] | – | < 0.5 | < 10 | – | –
26 | CSc1cc(C)[nH]c(=O)c1CNC(=O)c1c(C)n([C@H](C)C2CCC(Oc3cnn(C)c3)CC2)c2ncccc12 (single isomer, unassigned) [147 (isomer 2)] | < 10 | < 0.5 | – | – | –
27 | CSc1cc(C)[nH]c(=O)c1CNC(=O)c1c(C)n([C@H](C)C2CCC(N3CC(N(C)C)C3)CC2)c2ccccc12 (single isomer, unassigned) [148 (isomer 1)] | – | < 0.5 | 10 to 100 | – | –
28 | CSc1cc(C)[nH]c(=O)c1CNC(=O)c1c(C)n([C@H](C)C2CCC(N3CC(N(C)C)C3)CC2)c2ccccc12 (single isomer, unassigned) [148 (isomer 2)] | 10 to 100 | < 0.5 | – | – | –
29 | CSc1cc(C)[nH]c(=O)c1CNC(=O)c1c(C)n([C@H](C)C2CCC(NC3(C)CCOC3)CC2)c2ccccc12 (single isomer, unassigned) [149 (isomer 1)] | – | < 0.5 | 10 to 100 | – | –
30 | CSc1cc(C)[nH]c(=O)c1CNC(=O)c1c(C)n([C@H](C)C2CCC(NC3(C)CCOC3)CC2)c2ccccc12 (single isomer, unassigned) [149 (isomer 2)] | 10 to 100 | < 0.5 | – | – | –
31 | CSc1cc(C)[nH]c(=O)c1CNC(=O)c1c(C)n([C@H](C)C2CCC(NC3(CF)COC3)CC2)c2ccccc12 (single isomer, unassigned) [154 (isomer 1)] | – | < 0.5 | 10 to 100 | – | –
32 | CSc1cc(C)[nH]c(=O)c1CNC(=O)c1c(C)n([C@H](C)C2CCC(NC3(CF)COC3)CC2)c2ccccc12 (single isomer, unassigned) [154 (isomer 2)] | < 10 | < 0.5 | – | – | –
